Test results published in article PMC11609934, “Exploration and characterization of the antimalarial activity of cyclopropyl carboxamides that target the mitochondrial protein, cytochrome b” (European Journal of Medicinal Chemistry, 2024).
Like-named read-outs stand apart in the source and are kept apart here.

Legend:
[1] = Human HepG2 growth inhibition assay (Cell TitreGlo, 48 h); assay type: cell-based; settings: human, HepG2 cells, HepG2 cell growth inhibition over 48 h
In short: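 HepG2 cells (1000/well, DMEM + 10% FCS) exposed 48 h at 37 °C, 5% CO2 to compound from 50 μM top concentration in 1:2 dilutions, 0.5% DMSO final. Viability read by Cell Titer Glo, normalised to DMSO and 10 μM bortezomib; EC50 by four-parameter variable-slope fit.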

[2] = tested on: P. berghei ANKA parasites; assay: P. berghei 4-day mouse model; assay type: in vivo, Plasmodium berghei
Procedure: The 4-day P. berghei mouse model is used to determine the preliminary in vivo efficacy of antimalarials at an early stage of optimization. To determine if cyclopropyl carboxamide series could reduce asexual blood stage infection, we evaluated representative compounds WJM280 (108) and analog 109 in the 4-day P. berghei mouse model. In this model, mice were infected P. berghei asexual stage parasites, and then 2 h after the infection, WJM280 (108) and analog 109 at 50 mg/kg and artesunate at 30 mg/kg were administered by oral gavage. The same compound doses were administered again, 24, 48, and 72 h post infection. Parasitemia was then quantified by preparing blood smears and visualizing by microscopy across days 2, 3, and 4. […] The inability of these compounds to reduce parasitemia was attributed to their high metabolic turnover, which is a characteristic that needs improving on further development of the cyclopropyl carboxamide class.
P. berghei 4-day Mouse Model. This model was conducted as previously described.

male gamete = assay: Dual gamete formation assay, male gametes; assay type: cell-based; settings: Plasmodium falciparum; NF54 parasites in a DGFA, 4 replicates
Procedure: To determine whether the cyclopropyl carboxamide class has transmission blocking potential we profiled selected analogs in a dual gamete formation assay. In this assay, stage V gametocytes are treated with compound, and gametogenesis is induced by the addition of xanthurenic acid. Male gamete viability is determined by an imaging algorithm measuring motile flagellation, while female viability is measured using an antibody to the female-specific Pfs25 surface marker. […] Collectively, the activity observed against male gametes is consistent with activity observed with other cyt b inhibitors.
Dual Gamete Formation Assay. Compounds were evaluated as previously described as a platform run at both Imperial College London and the London School of Hygiene and Tropical Medicine. Briefly, mature stage V gametocytes were exposed to compounds for 48 h at 37 °C in 384 well plates in gametocyte culture medium (RPMI 1640 supplemented with 25 mM HEPES, 50 μg/mL hypoxanthine, 4.8 g/L NaHCO3, 2 mM L-glutamine, 5 % pooled type AB serum, 0.5 % Albumax II (Gibco)) under a 1 % O2/3 % CO2/96 % N2 environment. Gametogenesis was then triggered by the addition of 10 μL ookinete medium (gametocyte culture medium supplemented with 100 μM xanthurenic acid and 0.27 μg/mL Cy3-labelled anti-Pfs25 antibody) to each well at room temperature. Plates were then cooled on a metal block at 4 °C for 4 min to ensure even cooling and then stabilized for a further 4 min at 28 °C. At 20 min post-induction, male gametogenesis was recorded in each well by automated brightfield microscopy using a × 4 objective lens and 1.5 × magnifier ( × 6 effective magnification). Afterward, plates were incubated in the dark at room temperature for 24 h and then female gametogenesis recorded in each well by automated fluorescence microscopy (anti-Pfs25-positive cells). […] All data was evaluated in comparison to the positive and negative controls to calculate percentage inhibition of male and female gametocytes, and dose response analysis and EC50 calculation performed using GraphPad Prism.

[3] = tested on: W466-resistant populations; assay: 72 h growth assay against W466-resistant populations; assay type: cell-based, Plasmodium falciparum; settings: for EC50: Plasmodium falciparum
Text: To determine the mechanism of action of the cyclopropyl carboxamide series, a forward genetic resistance study was undertaken on the two hit compounds W466 (1) and W499 (2).
The structures of W466 (1) and W499 (2) are slightly different although they appear to belong to the same structural class. To confirm if W466 (1) and W499 (2) may have the same molecular target, W466 (1) and W499 (2) were each evaluated for cross resistance against their respective resistant populations from the pulsed forward genetic study (Fig. 2).

Row | SMILES | CC50 at 48 h [1] [nM] | body weights of mice ([2]; 50 mg/kg q.d. oral, 4 days) | % parasitemia ([2]; mice, day 4, oral gavage q.d. x4, 50 mg/kg (ART 30 mg/kg)) [%] | % reduction in parasitemia ([2]; versus vehicle control, mice, day 4, oral gavage q.d. x4, 50 mg/kg (ART 30 mg/kg)) [%] | EC50 (male gamete) [nM] | fold shift in EC50 against W466-resistant populations compared to wildtype 3D7 [3] [fold] | EC50 ([3]; read-out: EC50 against W466-resistant parasites) [nM] | EC50 ([3]; read-out: W466-resistant populations EC50 (SD) #1) [nM] | EC50 ([3]; read-out: W466-resistant populations EC50 (SD) #2) [nM] | EC50 ([3]; read-out: W466-resistant populations EC50 (SD) #3) [nM]
1 | CCCN(Cc1ccc(C(=O)NC2CC2)cc1)Cc1ccc(C(F)(F)F)cc1 [WJM280 (108), N-Cyclopropyl-4-((propyl(4-(trifluoromethyl)benzyl)amino)methyl)benzamide] | 15000 | remained unchanged | 81 | 19 | – | – | – | – | – | –
2 | O=C(NC1CC1)c1ccc(CN(Cc2ccc(Cl)cc2Cl)C2CC2)cc1 [W499 (2)] | > 40000 | – | – | – | 760 | 2 | 220 to 280 | 283 | 243 | 215
